Laboratory results reported in patent publication US20090221616A1, “QUINAZOLINE DERIVATIVES AS EGF AND/OR ERBB2 TYROSINE KINASE INHIBITORS” (priority 2005, published 2009).

Key:
EGFR tyrosine kinase = target: T1, EGFR tyrosine kinase (Homo sapiens, UniProt P00533); assay: Test (a) protein tyrosine kinase phosphorylation assay, EGFR; assay type: biochemical; conditions: ATP at Km concentration; read-out: IC50 Test (a): Inhibition of EGFR tyrosine kinase protein phosphorylation
T1 construct: Recombinant intracellular fragments of EGFR, erbB2 and erbB4; made in house; host or cells: baculovirus/Sf21 insect cells (cleared lysate used)
Experimental: (§1) This test measures the ability of a test compound to inhibit the phosphorylation of a tyrosine containing polypeptide substrate by EGFR, erbB2 and erbB4 tyrosine kinase enzyme.
(§2) Recombinant intracellular fragments of EGFR, erbB2 and erbB4 (accession numbers X00588, X03363 and L07868 respectively) were cloned and expressed in the baculovirus/Sf21 system. […]
(§3) Constitutive kinase activity of these recombinant proteins was determined by their ability to phosphorylate a synthetic peptide (made up of a random co-polymer of Glutamic Acid, Alanine and Tyrosine in the ratio of 6:3:1). […]
(§4) The immobilised phospho-peptide product of the reaction was detected by immunological methods. […] After further washing, HRP activity in each well of the plate was measured colorimetrically using 22′-Azino-di-[3-ethylbenzthiazoline sulfonate (6)] diammonium salt crystals (ABTS™ from Roche) as a substrate.
(§5) Quantification of colour development and thus enzyme activity was achieved by the measurement of absorbance at 405 nm on a Molecular Devices ThermoMax microplate reader. Kinase inhibition for a given compound was expressed as an IC50 value. […] The range of phosphorylation was calculated from the positive (vehicle plus ATP) and negative (vehicle minus ATP) control values.

erbB2 tyrosine kinase = target: T2, erbB2 tyrosine kinase (Homo sapiens, UniProt P04626); assay: Test (a) protein tyrosine kinase phosphorylation assay, erbB2; assay type: biochemical; conditions: ATP at Km concentration; read-out: IC50 Test (a): Inhibition of erbB2 tyrosine kinase protein phosphorylation
T2 construct: Recombinant intracellular fragments of EGFR, erbB2 and erbB4; made in house; host or cells: baculovirus/Sf21 insect cells (cleared lysate used)
Experimental: as §1, §2, §3, §4, §5

[1] = target: T3, erbB2 in a MCF7 derived cell line (Clone 24 cells) (Homo sapiens, UniProt P04626); assay: Test (c) Clone 24 phospho-erbB2 cell assay; assay type: cell-based; conditions: MCF7 derived Clone 24 cells, 4 hours with compound; read-out: IC50 Test (c): Inhibition of erbB2 tyrosine kinase protein phosphorylation
T3 construct: to give a cell line that overexpresses full length wild type erbB2 protein; expressed in transfected cells; host or cells: MCF7 (breast carcinoma) derived Clone 24 cells
Experimental: This immunofluorescence end point assay measures the ability of a test compound to inhibit the phosphorylation of erbB2 in a MCF7 (breast carcinoma) derived cell line which was generated by transfecting MCF7 cells with the full length erbB2 gene using standard methods to give a cell line that overexpresses full length wild type erbB2 protein (hereinafter ‘Clone 24’ cells).
Clone 24 cells were cultured in Growth Medium (phenol red free Dulbecco's modified Eagle's medium (DMEM) containing 10% foetal bovine serum, 2 mM glutamine and 1.2 mg/ml G418) in a 7.5% CO2 air incubator at 37° C. […] Cell density was measured using a haemocytometer and viability was calculated using Trypan Blue solution before being further diluted in Growth Medium and seeded at a density of 1×10^4 cells per well (in 100 μl) into clear bottomed 96 well plates (Packard, No. 6005182). […]
Immunostaining was performed at room temperature. […] Plates were analysed within six hours of completing the immunostaining.
The Fluorescence signal is each well was measured using an Acumen Explorer Instrument (Acumen Bioscience Ltd.), a plate reader that can be used to rapidly quantitate features of images generated by laser-scanning. […]

T1 sequence (P00533 669-1210 limits assumed): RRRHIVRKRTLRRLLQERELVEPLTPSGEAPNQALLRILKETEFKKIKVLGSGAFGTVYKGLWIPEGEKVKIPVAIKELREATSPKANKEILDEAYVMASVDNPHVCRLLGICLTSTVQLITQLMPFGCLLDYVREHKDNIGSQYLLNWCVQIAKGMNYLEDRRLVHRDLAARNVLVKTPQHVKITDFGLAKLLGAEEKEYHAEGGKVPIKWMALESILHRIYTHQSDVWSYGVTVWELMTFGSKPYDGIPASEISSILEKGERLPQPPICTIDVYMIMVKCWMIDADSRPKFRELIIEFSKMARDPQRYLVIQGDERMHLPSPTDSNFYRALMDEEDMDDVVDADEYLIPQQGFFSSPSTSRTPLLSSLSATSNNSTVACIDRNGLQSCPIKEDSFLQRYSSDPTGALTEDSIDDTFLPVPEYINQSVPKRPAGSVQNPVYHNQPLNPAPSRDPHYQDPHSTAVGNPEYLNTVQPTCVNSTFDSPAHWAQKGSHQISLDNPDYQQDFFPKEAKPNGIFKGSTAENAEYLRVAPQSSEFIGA
T2 sequence (P04626 676-1255 limits assumed): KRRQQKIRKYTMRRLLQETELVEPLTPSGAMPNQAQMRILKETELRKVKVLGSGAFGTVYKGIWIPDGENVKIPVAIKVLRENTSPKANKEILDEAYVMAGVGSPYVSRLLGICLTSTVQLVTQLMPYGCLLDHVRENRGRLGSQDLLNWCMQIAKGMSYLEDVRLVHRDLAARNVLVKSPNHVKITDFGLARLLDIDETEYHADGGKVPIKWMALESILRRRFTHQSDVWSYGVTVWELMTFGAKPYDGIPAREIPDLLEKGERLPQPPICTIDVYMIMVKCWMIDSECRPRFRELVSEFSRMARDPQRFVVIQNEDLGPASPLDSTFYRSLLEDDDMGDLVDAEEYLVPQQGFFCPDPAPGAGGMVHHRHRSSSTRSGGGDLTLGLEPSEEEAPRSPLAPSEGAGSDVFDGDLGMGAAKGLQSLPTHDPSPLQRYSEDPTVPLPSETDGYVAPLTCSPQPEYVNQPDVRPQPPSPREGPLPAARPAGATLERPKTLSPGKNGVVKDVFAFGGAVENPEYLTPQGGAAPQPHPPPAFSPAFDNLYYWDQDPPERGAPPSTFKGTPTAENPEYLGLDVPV
T3 sequence (P04626 23-1255): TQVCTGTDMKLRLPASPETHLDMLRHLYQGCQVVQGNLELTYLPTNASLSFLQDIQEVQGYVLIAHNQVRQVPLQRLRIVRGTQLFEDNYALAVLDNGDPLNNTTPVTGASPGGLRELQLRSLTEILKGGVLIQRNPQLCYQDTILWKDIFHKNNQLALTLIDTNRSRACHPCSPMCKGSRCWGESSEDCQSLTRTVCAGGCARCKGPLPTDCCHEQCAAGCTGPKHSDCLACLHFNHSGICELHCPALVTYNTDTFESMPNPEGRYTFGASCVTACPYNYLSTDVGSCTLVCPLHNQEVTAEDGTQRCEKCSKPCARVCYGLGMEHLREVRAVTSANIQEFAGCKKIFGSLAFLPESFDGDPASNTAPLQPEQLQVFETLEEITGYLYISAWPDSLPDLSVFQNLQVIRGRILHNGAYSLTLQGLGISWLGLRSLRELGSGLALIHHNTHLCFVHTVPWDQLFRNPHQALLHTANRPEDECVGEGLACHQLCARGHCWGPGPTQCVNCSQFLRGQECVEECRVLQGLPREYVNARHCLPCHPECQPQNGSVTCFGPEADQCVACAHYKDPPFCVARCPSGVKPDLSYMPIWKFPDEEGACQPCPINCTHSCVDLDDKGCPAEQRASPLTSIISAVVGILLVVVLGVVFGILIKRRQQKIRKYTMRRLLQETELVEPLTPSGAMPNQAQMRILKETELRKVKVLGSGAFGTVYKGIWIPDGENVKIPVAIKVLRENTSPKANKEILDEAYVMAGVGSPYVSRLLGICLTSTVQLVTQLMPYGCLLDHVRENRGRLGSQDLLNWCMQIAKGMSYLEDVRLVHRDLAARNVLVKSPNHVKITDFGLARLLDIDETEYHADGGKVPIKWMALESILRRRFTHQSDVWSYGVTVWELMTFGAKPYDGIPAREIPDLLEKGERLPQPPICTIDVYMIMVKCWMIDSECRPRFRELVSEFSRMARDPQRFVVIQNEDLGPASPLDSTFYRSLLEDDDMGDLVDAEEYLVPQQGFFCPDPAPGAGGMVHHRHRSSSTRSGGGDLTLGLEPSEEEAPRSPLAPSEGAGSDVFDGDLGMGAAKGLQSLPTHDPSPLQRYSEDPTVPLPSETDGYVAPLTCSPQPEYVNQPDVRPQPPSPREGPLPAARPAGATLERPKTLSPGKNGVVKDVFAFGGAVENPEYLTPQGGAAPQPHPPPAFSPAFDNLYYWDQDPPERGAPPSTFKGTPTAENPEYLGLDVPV

IC50 (EGFR tyrosine kinase)	IC50 (erbB2 tyrosine kinase)	IC50 [1]	Structure (SMILES)
180 nM	8 nM	420 nM	CN(CCOc1cccc2ncnc(Nc3ccc4c(cnn4Cc4ccccn4)c3)c12)C(=O)CO [Example 1, 2-Hydroxy-N-methyl-N-{2-[(4-{[1-(pyridin-2-ylmethyl)-1H-indazol-5-yl]amino}quinazolin-5-yl)oxy]ethyl}acetamide]
160 nM	6 nM	590 nM	CN(CCOc1cccc2ncnc(Nc3ccc4c(cnn4Cc4cscn4)c3)c12)C(=O)CO [Example 2, 2-Hydroxy-N-methyl-N-{2-[(4-{[1-(1,3-thiazol-4-ylmethyl)-1H-indazol-5-yl]amino}quinazolin-5-yl)oxy]ethyl}acetamide]
